Experiment [1] concerns HT-1080. Briefly: Anti-ferroptotic activity against Erastin-induced ferroptosis in human HT-1080 cells. The experiment is classed as functional, cell-based.
The target of experiment [2] is Voltage-gated inwardly rectifying potassium channel KCNH2 (Homo sapiens, UniProt Q12809). The experiment can be described thus: Inhibition of hERG. The class given is toxicity. Background: Block of hERG is tested as a sign of cardiac risk.
Experiment [3] concerns Calu-1. Briefly: Anti-ferroptotic activity against Erastin-induced ferroptosis in human Calu-1 cells assessed as decrease in smaller and rounder cells measured by cytocalcein violet 450 staining method. The experiment is classed as functional, cell-based.
Experiment [4] relates to HT-1080. The experiment can be described thus: Anti-ferroptotic activity against Erastin-induced ferroptosis in human HT-1080 cells assessed as decrease in smaller and rounder cells measured by cytocalcein violet 450 staining method. The experiment is classed as functional, cell-based.
A short description of experiment [5]: Antioxidant activity assessed as DPPH radical scavenging activity at 10 to 50 uM. The class given is functional. The note with it: dose 10-50 µM. For orientation: The DPPH test is a chemical assay of radical scavenging.
Experiment [6] has as its system HT-1080. The experiment can be described thus: Anti-ferroptotic activity against Erastin-induced ferroptosis in human HT-1080 cells assessed as decrease in smaller and rounder cells measured by 7-AAD staining method. The class given is functional, cell-based.
Experiment [7] concerns HT-1080. Briefly: Anti-ferroptotic activity against Erastin-induced ferroptosis in human HT-1080 cells assessed as cell viability measured by MTT assay. The class given is functional, cell-based. (In general: Formazan colour is commonly taken as a measure of viable cells.)
The test system of experiment [8] is Mus musculus. The experiment can be described thus: Protection against doxorubicin-induced cardiomyopathy model of mouse assessed as decrease in serum LDH level at 10 to 30 mg/kg, ip administered 2 hrs prior to doxorubicin administration. The experiment is classed as functional, organism-based. The note with it: dose 10-30 mg/kg.
The next experiment has as its system ES-2. The experiment can be described thus: Anti-ferroptotic activity against Erastin-induced ferroptosis in human ES2 cells assessed as cell viability measured by MTT assay. The class given is functional, cell-based.
Experiment [9] deals with Calu-1. Briefly: Anti-ferroptotic activity against Erastin-induced ferroptosis in human Calu-1 cells assessed as decrease in smaller and rounder cells measured by 7-AAD staining method. The experiment is classed as functional, cell-based.
Experiment [10] concerns Calu-1. Briefly: Anti-ferroptotic activity against Erastin-induced ferroptosis in human Calu-1 cells assessed as cell viability measured by MTT assay. The class given is functional, cell-based.
The subject of experiment [11] is Mus musculus. The experiment can be described thus: Protection against doxorubicin-induced cardiomyopathy model of mouse assessed as decrease in serum ALT level at 10 to 30 mg/kg, ip administered 2 hrs prior to doxorubicin administration. The class given is functional, organism-based. The note with it: dose 10-30 mg/kg.
For experiment [12], the system named is HT-1080. The experiment can be described thus: Antioxidant activity in human HT-1080 cells assessed as reduction in lipid ROS production at 0.01 to 1 uM measured by C11-BODIPY staining method. The class given is functional, cell-based. The note with it: dose 0.01-1 µM.
In experiment [13] the test system is HT-1080. The experiment can be described thus: Antioxidant activity in human HT-1080 cells assessed as reduction in ROS production in cytoplasm at 0.01 to 1 uM measured by H2DCFDA staining method. The class given is functional, cell-based. The note with it: dose 0.01-1 µM.
The test system of experiment [14] is HT-1080. Briefly: Anti-ferroptotic activity against Erastin-induced ferroptosis in human HT-1080 cells assessed as decrease in MDA level at 0.01 to 1 uM. The experiment is classed as functional, cell-based. The note with it: dose 0.01-1 µM.
The test system of experiment [15] is Mus musculus. Briefly: Protection against doxorubicin-induced cardiomyopathy model of mouse assessed as […] in collagen outflow at 10 to 30 mg/kg, ip administered 2 hrs prior to doxorubicin administration measured by Sirius red staining method. The note with it: dose 10-30 mg/kg. The experiment is classed as functional, organism-based.
Experiment [16] relates to Mus musculus. Briefly: Protection against doxorubicin-induced cardiomyopathy model of mouse assessed as […] in collagen outflow at 10 to 30 mg/kg, ip administered 2 hrs prior to doxorubicin administration measured by H and E staining method. The experiment is classed as functional, organism-based. The note with it: dose 10-30 mg/kg.
The test system of the next experiment is MDA-MB-231. The experiment can be described thus: Anti-ferroptotic activity against Erastin-induced ferroptosis in human MDA-MB-231 cells assessed as cell viability measured by MTT assay. The class given is functional, cell-based.
For experiment [17], the system named is Mus musculus. The experiment can be described thus: Protection against doxorubicin-induced cardiomyopathy model of mouse assessed as decrease in serum AST level at 10 to 30 mg/kg, ip administered 2 hrs prior to doxorubicin administration. The experiment is classed as functional, organism-based. The note with it: dose 10-30 mg/kg.
Experiment [18] deals with Mus musculus. The experiment can be described thus: Protection against doxorubicin-induced cardiomyopathy model of mouse assessed as decrease in serum CK-MB level at 10 to 30 mg/kg, ip administered 2 hrs prior to doxorubicin administration. The experiment is classed as functional, organism-based. The note with it: dose 10-30 mg/kg.

The source made the active and inactive calls. The rule behind the calls is not given here.

As a reminder, the EC50 is the concentration at which the effect is half-maximal. Usually IC50 stands for the concentration needed to halve the response being measured. Higher therefore signals weaker potency in that assay.

Chain of Voltage-gated inwardly rectifying potassium channel KCNH2 (Q12809 whole entry): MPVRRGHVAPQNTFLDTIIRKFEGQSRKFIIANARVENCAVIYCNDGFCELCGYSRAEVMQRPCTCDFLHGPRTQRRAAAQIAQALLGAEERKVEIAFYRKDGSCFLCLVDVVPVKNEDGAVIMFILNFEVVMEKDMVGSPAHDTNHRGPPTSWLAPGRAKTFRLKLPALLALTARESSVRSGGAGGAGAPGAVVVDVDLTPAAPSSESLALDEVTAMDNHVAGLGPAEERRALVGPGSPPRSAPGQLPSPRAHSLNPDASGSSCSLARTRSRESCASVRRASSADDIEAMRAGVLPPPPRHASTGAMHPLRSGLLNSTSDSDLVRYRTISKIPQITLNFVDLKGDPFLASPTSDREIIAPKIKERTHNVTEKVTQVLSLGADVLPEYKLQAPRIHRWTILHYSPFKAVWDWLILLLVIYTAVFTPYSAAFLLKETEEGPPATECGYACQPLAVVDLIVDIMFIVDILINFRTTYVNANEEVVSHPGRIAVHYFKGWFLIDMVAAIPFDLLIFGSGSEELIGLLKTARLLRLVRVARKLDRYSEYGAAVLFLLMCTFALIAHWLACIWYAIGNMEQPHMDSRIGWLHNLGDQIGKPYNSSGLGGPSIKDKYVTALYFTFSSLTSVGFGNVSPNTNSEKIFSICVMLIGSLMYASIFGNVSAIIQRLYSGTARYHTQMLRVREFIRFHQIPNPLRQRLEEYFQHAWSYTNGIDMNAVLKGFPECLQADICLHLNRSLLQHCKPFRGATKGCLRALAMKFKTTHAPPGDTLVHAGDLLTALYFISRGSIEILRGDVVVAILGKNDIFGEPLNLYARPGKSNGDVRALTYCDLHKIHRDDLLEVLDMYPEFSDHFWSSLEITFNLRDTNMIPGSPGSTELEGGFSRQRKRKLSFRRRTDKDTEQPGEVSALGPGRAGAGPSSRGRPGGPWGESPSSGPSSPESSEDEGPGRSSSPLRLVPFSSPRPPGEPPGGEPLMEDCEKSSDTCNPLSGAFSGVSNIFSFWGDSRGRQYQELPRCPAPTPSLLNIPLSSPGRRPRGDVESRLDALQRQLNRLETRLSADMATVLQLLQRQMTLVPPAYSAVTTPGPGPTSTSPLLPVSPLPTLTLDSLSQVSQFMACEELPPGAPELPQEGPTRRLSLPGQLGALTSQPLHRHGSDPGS

`C=C(c1ccc2c(c1)Nc1ccccc1S2)c1cccc2ccncc12` returned an EC50 in the experiment on HT-1080 [1] of 21 nM.
Same read-out and setting: to `C=C(c1ccc2c(c1)Nc1ccccc1S2)c1cccc2cnccc12` belongs 26 nM; to `C=C(c1ccc2c(c1)Nc1ccccc1S2)c1ccccc1N`, 29 nM; to `C=C(c1ccc2c(c1)Nc1ccccc1S2)c1cnc2c(ccn2C)c1`, 42 nM.
For `C=C(c1ccc(NC(C)=O)cc1)c1ccc2c(c1)Nc1ccccc1S2`, in experiment [2], half-maximal inhibition (IC50) required 22000 nM. For the same molecule, in the experiment on HT-1080 [1], the EC50 was 4 nM.
On to `C=C(c1ccc2c(c1)Nc1ccccc1S2)c1cnc2c(cnn2C)c1`, for which, in the experiment with HT-1080 [1], it took 58 nM to reach a half-maximal effect (EC50).
The same measure, in the same setting: to `C=C(c1ccc(C2CCCCC2)cc1)c1ccc2c(c1)Nc1ccccc1S2` belongs 39 nM.
`CC(c1ccc(N2C[C@@H]3C[C@H]2CN3C)cc1)c1ccc2c(c1)Nc1ccccc1S2` (stereo partly drawn) had a half-maximal inhibitory concentration (IC50) in experiment [2] of 1980 nM. Also, the concentration giving a half-maximal response (EC50) in the experiment with HT-1080 [1] amounted to 3 nM.
`C=C(c1ccc(-c2ccccc2)cc1)c1ccc2c(c1)Nc1ccccc1S2`: in the experiment with HT-1080 [1], the EC50 is 41 nM.
In turn, `C=C(c1ccc(N2CCOCC2)cc1)c1ccc2c(c1)Nc1ccccc1S2` registered a concentration for a half-maximal effect (EC50) with HT-1080 [1] of 39 nM.
On the same count and under the same terms, the figure for `C=C(c1ccc(OC)cc1)c1ccc2c(c1)Nc1ccccc1S2` is 13 nM.
As to `C=C(c1ccc(NC(N)=O)cc1)c1ccc2c(c1)Nc1ccccc1S2`, the result (in the experiment with Calu-1 [3]; in the experiment with HT-1080 [4]; in experiment [5]; in the experiment with HT-1080 [6]; with Mus musculus [8]; with Calu-1 [9]) was Active. Besides, the result in the experiment on Mus musculus [11], in the experiment with HT-1080 [12], in the experiment with HT-1080 [13], in the experiment on HT-1080 [14], in the experiment on Mus musculus [15] and with Mus musculus [16] was Active. For the same molecule, the outcome with Mus musculus [17] and with Mus musculus [18] was Active. Also, the IC50 in experiment [2] was above 30000 nM. Besides, the EC50 in the experiment with HT-1080 [1] is 1 nM; in the experiment on HT-1080 [7], 1.61 nM; with ES-2, 1.81 nM; in the experiment on Calu-1 [10], 3.36 nM; in the experiment with MDA-MB-231, 1.01 nM.
`C=C(c1ccc(N2C[C@@H]3C[C@H]2CN3C)cc1)c1ccc2c(c1)Nc1ccccc1S2` registered an IC50 in experiment [2] of 12000 nM. Moreover, a half-maximal response in the experiment with HT-1080 [1] (EC50) required 3 nM.
For `C=C(c1ccc2c(c1)Nc1ccccc1S2)c1cnc2ccccc2c1`, in the experiment on HT-1080 [1], the EC50 was determined as 19 nM.
Molecule `C=C(c1ccc(C(F)(F)F)cc1)c1ccc2c(c1)Nc1ccccc1S2` gave an EC50 with HT-1080 [1] of 11 nM.
Still for that read-out and setting: the figure for `C=C(c1cnc2c(c1)CCN2)c1ccc2c(c1)Nc1ccccc1S2` is 89 nM.
In the case of `C=C(c1ccc(N2CC[C@H](N(C)C)C2)cc1)c1ccc2c(c1)Nc1ccccc1S2`, the IC50 in experiment [2] was determined as 5060 nM. A half-maximal effect in the experiment with HT-1080 [1] (EC50) was put at 1 nM.
On to `C=C(c1ccccc1)c1ccc2c(c1)Nc1ccccc1S2`, for which, in the experiment with HT-1080 [1], it took 10 nM to reach a half-maximal effect (EC50).
In the experiment on HT-1080 [1], `C=C(c1ccc(N)cc1)c1ccc2c(c1)Nc1ccccc1S2` showed an EC50 of 8 nM.
On the same count and under the same terms, the figure for `C=C(c1ccc(C(C)C)cc1)c1ccc2c(c1)Nc1ccccc1S2` is 40 nM; for `C=C(c1cccc(N)c1)c1ccc2c(c1)Nc1ccccc1S2` it is 17 nM.
On the same count and under the same terms, the figure for `C=C(c1ccc2c(c1)Nc1ccccc1S2)c1ccc2c(c1)SCC(=O)N2` is 33 nM.
Consider `C=C(c1ccc(NC(=O)N(C)C)cc1)c1ccc2c(c1)Nc1ccccc1S2`, for which the EC50 in the experiment on HT-1080 [1] turned out to be 20 nM.
Still for that read-out and setting: the figure for `C=C(c1ccc2c(c1)Nc1ccccc1S2)c1ccc2c(c1)OCCO2` is 37 nM.
Same read-out and setting: to `C=C(c1ccc2c(c1)Nc1ccccc1S2)c1cncc2ccccc12` belongs 25 nM.

Values taken from ChEMBL document CHEMBL5107990, “Discovery of 2-vinyl-10H-phenothiazine derivatives as a class of ferroptosis inhibitors with minimal human Ether-a-go-go related gene (hERG) activity for the treatment of DOX-induced cardiomyopathy” (Bioorg Med Chem Lett, 2022).
